Reference: US8445636B2, “Antimicrobial and anticancer lipopeptides” (Yeda Research & Development Co. Ltd., priority 2003, dated 2013)
In brackets after ≈: the same amount, converted by molar mass. Non-standard residues stand in square brackets, D forms with d. Residues, ends and D or L forms follow the SMILES beside them. *: point of attachment. Palmitoyl = CCCCCCCCCCCCCCCC(=O)*

Columns and labels:
Assay type in all cases: cell-based
[1] = tested on: Candida albicans ATCC 10231; experiment: microbe, parasite or virus in culture; conditions: ATCC 10231, pH 7.4; read-out: Minimal Inhibitory Concentration, Candida Albicans (ATCC 10231)
Method: The antifungal activity of the lipopeptides was examined in sterile 96-well plates (Nunc F96 microtiter plates) in a final volume of 200 μL as follows: 100 µl of a suspension containing fungi at a concentration of 1×10^4 Colony-Forming Units (CFU)/ml in culture medium (RPMI 1640, 0.165 M MOPS with L-glutamine, without NaHCO3) at pH 7.4 or pH 5.5 (adjustment of the pH was done by diluted solutions of HCl and NaOH) were added to 100 μl of water containing the peptide in serial 2-fold dilutions in water. The fungi were incubated in the presence of the lipopeptides for 24-48 h at 35° C. in a Binder KB115 incubator under agitation. Growth inhibition was determined by measuring the absorbance at 620 nm with a Microplate autoreader E1309 (Bio-Tek Instruments). Antifungal activity is expressed as the minimal inhibitory concentration (MIC), the concentration at which 100% inhibition of fungi growth was observed after the incubation time mentioned above. The fungi used were: Aspergillus niger ATCC 9642, Candida albicans ATCC 10231 and Cryptococcus neoformans ATCC 66031. If not indicated otherwise, the fungi growth was detected at pH 7.4.

[2] = tested on: E. coli D21; conditions: D21, pH 7.4
[3] = tested on: Aspergillus fumigatus ATCC 26430; experiment: microbe, parasite or virus in culture; conditions: ATCC 26430, pH 7.4; read-out: Minimal Inhibitory Concentration, Aspergillus Fomigatus (ATCC 26430)
[4] = tested on: Staphylococcus aureus ATCC 6538P; conditions: ATCC 6538, pH 7.4
Method: (§1) The antibacterial activity of the lipopeptides was examined in sterile 96-well plates (Nunc F96 microtiter plates) in a final volume of 100 μl as follows: Aliquots (50 μl) of a suspension containing bacteria at concentration of 1×10^6 Colony-Forming Units (CFU)/ml in culture LB (Lauria broth) medium (pH 7.4 or pH 5.5) were added to 50 μl of water containing the lipopeptide in serial 2-fold dilutions in water. Adjustment of the pH was done by diluted solutions of HCl and NaOH Inhibition of growth was determined by measuring the absorbance at 600 nm with a Microplate autoreader E1309 (Bio-Tek Instruments), after an incubation time of 18-20 h at 37° C. Antibacterial activities were expressed as the minimal inhibitory concentration (MIC), the concentration at which 100% inhibition of growth was observed after 18-20 h of incubation. The bacteria used were: Escherichia coli ATCC 25922, Acinetobacter baumannii ATCC 19606, Pseudomonas aeruginosa ATCC 27853, Staphylococcus aureus ATCC 6538P, Enterococcus faecalis ATCC 29212, Enterobacter cloacae ATCC 49141. The antibacterial activity of lipopeptides was also examined against resistant bacteria: methicilin-resistant Staphylococcus aureus (MRSA) ATCC 700698 and vancomycin-resistant Enterococcus faecium (VRE) ATCC 700221. If not indicated otherwise, the bacterial growth was detected at pH 7.4.

[5] = tested on: Acinetobacter baumannii ATCC 19606; conditions: ATCC 19606, pH 7.4
Method: as §1

[6] = tested on: Cryptococcus neoformans ATCC MYA-422; experiment: microbe, parasite or virus in culture; conditions: ATCC MYA-422, pH 7.4; read-out: Minimal Inhibitory Concentration, Cyrptococcus neoformans (ATCC MYA-422)
[7] = tested on: Pseudomonas aeruginosa ATCC 27853; conditions: ATCC 27853, pH 7.4
Method: as §1

Row | Compound | MIC [1] [µM] | Minimal Inhibitory Concentration, E. coli-D21 [2] [µM] | MIC [3] [µM] | Minimal Inhibitory Concentration, S. aureus ATCC 6538P [4] [µM] | Minimal Inhibitory Concentration, A. baumannii ATCC 19606 [5] [µM] | MIC [6] [µM] | Minimal Inhibitory Concentration, P. aeruginosa ATCC 27853 [7] [µM]
1 | CCCCCCCCCCCCCC(=O)N[C@@H](CCCCN)C(=O)N[C@@H](CCCCN)C(=O)N[C@@H](CCCCN)C(N)=O [MYR-KKK] | >100 | 25 | 100 (≈ 61.2 µg/mL) | 12.5 | >100 | 12.5 (≈ 7.65 µg/mL) | –
2 | CCCCCCCCCCCCCCCC(=O)N[C@@H](CCC(=O)O)C(=O)N[C@H](CCCCN)C(=O)N[C@@H](CCCCN)C(N)=O [PA-EKK, Palmitoyl-Glu-D-Lys-Lys-NH2] (Palmitoyl-Glu-[dK]-Lys-NH2) | 25 (≈ 16 µg/mL) | 100 | 25 (≈ 16 µg/mL) | 25 | >100 | 12.5 (≈ 8.01 µg/mL) | >100
3 | CCCCCCCCCCCCCCCC(=O)N[C@@H](CCCCN)C(=O)N[C@@H](CCCCN)C(=O)N[C@@H](CCCCN)C(=O)N[C@@H](CCCCN)C(N)=O [PA-KKKK] (Palmitoyl-KKKK-NH2) | 25 (≈ 19.2 µg/mL) | 12.5 | 12.5 (≈ 9.6 µg/mL) | 25 | – | 1.56 (≈ 1.2 µg/mL) | 3.12
